Experimental data from PubChem BioAssay AID1963831 (Molecular Pharmacology Branch, DTP, NCI, 2024).
Where “and” joins values, the source holds several entries; their conditions need not be identical. Identical values can stand only once.

Test system: 889142-216-R-J1-PDC complex spheroid viability
Test: Anticancer human tumor 889142-216-R-J1-PDC patient-derived bladder carcinoma cell line growth inhibition [POLQ]
Details: for viability, T/C: stronger effect = lower value
Description: Multicellular complex tumor spheroid response to Polymerase (POL) inhibitors (novobiocin, ART-558, RP6685) in combination with a variety of drugs and investigational agents in selected tumor cell lines
The POL inhibitors (novobiocin, ART-558, and RP6685) were evaluated both individually and in combination with standard of care and investigational anticancer small molecules within a complex spheroid model of solid tumors. . Complex spheroids include a stromal component modeled by human endothelial cells (HUVEC) and fibroblasts modeled by human mesenchymal stem cells (MSCs). The concentration ranges selected for each drug and investigational agent were based upon clinically achievable concentrations if the clinical Cmax of the agent was known.
Compounds. The drugs and investigational agents: novobiocin (NSC847541), ART-558 (NSC835418), RP-6685 (NSC848927), peposertib (NSC802822), ceralasertib (NSC780249), elimusertib (NSC800525), camonsertib (NSC841442), AZD-1390 (NSC803789), olaparib (NSC753686), talazoparib (NSC767125), rucaparib (NSC756644), sotorasib (NSC818433), MRTX-1133 (NSC836407), SN-38 (NSC673596), topotecan (NSC609699), epotoside (NSC141540), doxorubicin (NSC123127), gemcitabine (NSC613327), 5-fluorouracil (NSC19893), paclitaxel (NSC125973), vemurafenib (NSC761431), MSA-2 (NSC828583), SN-011 (NSC837082), adavosertib (NSC754352), prexasertib (NSC758257), carboplatin (NSC241240) and oxaliplatin (NSC266046), were obtained from the National Cancer Institute (NCI) Developmental Therapeutics Program Chemical Repository (21). The FDA-approved anticancer drug set is available from the Developmental Therapeutics Program at https://dtp.cancer.gov/organization/dscb/obtaining/. […] The stock solutions were prepared in dimethyl sulfoxide (DMSO, Sigma-Aldrich, St. Louis, MO, cat. D2650), except for the platinum compounds which were prepared in saline (Quality Biological, Gaithersburg, MD, cat. 114-055-101), at 800-fold the tested concentration and stored at -70 degrees C prior to their use. All drugs and investigational agents were tested over a range starting from a high concentration at or near the clinical Cmax and decreasing in half-log increments. If the clinical Cmax for an agent had not been determined, the highest concentration tested was 10 microM, except for SN-38, which was tested at a high concentration of 1 microM.
Cell Culture. All cells were maintained in an incubator at 37 degrees C and 5% CO2 with 95% humidity. The PDC lines were cultured according to standard operating procedures established by the NCI PDMR (https://pdmr.cancer.gov). Table 3 of the manuscript, lists the cell lines along with the number of the three cell types plated to form the mct-spheroids and media for tumor cell growth. After thawing, all PDC lines, except 997537-175-T-J1-PDC and 415267-285-R-J2-PDC, were cultured in Matrigel-coated flasks prepared with a working solution of 1X Ham's F-12 nutrient mix, without supplementation (Thermo Fisher Scientific, cat. 11765054), 100 U/mL penicillin-streptomycin (Thermo Fisher Scientific, cat. 15140122), and 2.5% Matrigel (Corning Inc., Corning, NY, cat. 354248) for the first three passages. The two PDC lines 997537-175-T-J1-PDC and 415267-285-R-J2-PDC were cultured on uncoated flasks. The 857933-349-R-J2-PDC line was cultured in 6C/Colon 1B media containing advanced DMEM/F-12 (Thermo Fisher Scientific, cat. 12634028), 10 mM HEPES (Thermo Fisher Scientific, cat. 15630080), 1X GlutaMAX supplement (Thermo Fisher Scientific, cat. 35050061), 0.1 mg/mL primocin (InvivoGen, San Diego, CA, cat. ant-pm-2), 10% defined fetal bovine serum, heat inactivated (HyClone Laboratories Inc., Logan, UT, cat. SH30070.03HI), 50% L-WRN conditioned media (ATCC, cat. CRL-3276), 1.25 mM N-Acetyl-L-cysteine (Sigma-Aldrich, cat. A9165), 10 mM nicotinamide (Sigma-Aldrich, cat. N0636), 1X B-27 supplement (Thermo Fisher Scientific, cat. 17504044), 1X N-2 supplement (Thermo Fisher Scientific, cat. […]

[1] = curve of first compound, second compound 0.0316 µM
[2] = curve of first compound, second compound 0.1 µM
[3] = curve of first compound, second compound 0.316 µM
[4] = curve of first compound, second compound 1 µM
[5] = curve of first compound, second compound 3.16 µM
[6] = curve of first compound, second compound 10 µM
[7] = second compound 0.0316 µM, first compound 0.0316 µM
[8] = second compound 0.0316 µM, first compound 0.1 µM
[9] = second compound 0.0316 µM, first compound 0.316 µM
[10] = second compound 0.0316 µM, first compound 1 µM
[11] = second compound 0.1 µM, first compound 0.0316 µM
[12] = second compound 0.1 µM, first compound 0.1 µM
[13] = second compound 0.1 µM, first compound 0.316 µM
[14] = second compound 0.1 µM, first compound 1 µM
[15] = second compound 0.316 µM, first compound 0.0316 µM
[16] = second compound 0.316 µM, first compound 0.1 µM
[17] = second compound 0.316 µM, first compound 0.316 µM
[18] = second compound 0.316 µM, first compound 1 µM
[19] = second compound 1 µM, first compound 0.0316 µM
[20] = second compound 1 µM, first compound 0.1 µM
[21] = second compound 1 µM, first compound 0.316 µM
[22] = second compound 1 µM, first compound 1 µM
[23] = second compound 3.16 µM, first compound 0.0316 µM
[24] = second compound 3.16 µM, first compound 0.1 µM
[25] = second compound 3.16 µM, first compound 0.316 µM
[26] = second compound 3.16 µM, first compound 1 µM
[27] = second compound 10 µM, first compound 0.0316 µM
[28] = second compound 10 µM, first compound 0.1 µM
[29] = second compound 10 µM, first compound 0.316 µM
[30] = second compound 10 µM, first compound 1 µM
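Further: spheroids exposed to compounds for seven days.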
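Wherever viability, T/C is given: 100% = DMSO vehicle control viability.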

## CC1COCCN1c1cc(C2(S(C)(=N)=O)CC2)nc(-c2ccnc3[nH]ccc23)n1 (stereo not drawn) + Cc1cccc(N(C)C(=O)C2C(O)CCN2c2nc(C)cc(C(F)(F)F)c2C#N)c1
[1]
  IC50: 7040 nM
[2]
  IC50: 10000 nM
[3]
  IC50: 3020 nM
[4]
  IC50: 2270 nM
[5]
  IC50: 1400 nM
[6]
  IC50: 966 nM
[7]
  viability, T/C: 109%
[8]
  viability, T/C: 97.9%
[9]
  viability, T/C: 64.5%
[10]
  viability, T/C: 76%
Second compound 0.0316 µM, first compound 3.16 µM
  viability, T/C: 49.4%
Second compound 0.0316 µM, first compound 10 µM
  viability, T/C: 48.4%
[11]
  viability, T/C: 92.9%
[12]
  viability, T/C: 128%
[13]
  viability, T/C: 82%
[14]
  viability, T/C: 58.1%
Second compound 0.1 µM, first compound 3.16 µM
  viability, T/C: 49.5%
Second compound 0.1 µM, first compound 10 µM
  viability, T/C: 45.8%
[15]
  viability, T/C: 128%
[16]
  viability, T/C: 97%
[17]
  viability, T/C: 85%
[18]
  viability, T/C: 65.4%
Second compound 0.316 µM, first compound 3.16 µM
  viability, T/C: 43.7%
Second compound 0.316 µM, first compound 10 µM
  viability, T/C: 41.8%
[19]
  viability, T/C: 111%
[20]
  viability, T/C: 106%
[21]
  viability, T/C: 70.7%
[22]
  viability, T/C: 60.1%
Second compound 1 µM, first compound 3.16 µM
  viability, T/C: 50%
Second compound 1 µM, first compound 10 µM
  viability, T/C: 41.5%
[23]
  viability, T/C: 92.4%
[24]
  viability, T/C: 94.4%
[25]
  viability, T/C: 72.3%
[26]
  viability, T/C: 53.9%
Second compound 3.16 µM, first compound 3.16 µM
  viability, T/C: 44.5%
Second compound 3.16 µM, first compound 10 µM
  viability, T/C: 41.5%
[27]
  viability, T/C: 85.6%
[28]
  viability, T/C: 94.6%
[29]
  viability, T/C: 89.4%
[30]
  viability, T/C: 48.8%
Second compound 10 µM, first compound 3.16 µM
  viability, T/C: 50.1%
Second compound 10 µM, first compound 10 µM
  viability, T/C: 38.8%

## CCc1cc2c(N3CCc4c(cc(Cn5ccnc5)cc4-c4cn(C)nc4C(F)(F)F)C3=O)ccnc2c(OC)n1
Compound 0.0316 µM
  viability, T/C: 127% and 103% and 138%
Compound 0.1 µM
  viability, T/C: 115% and 101% and 105%
Compound 0.316 µM
  viability, T/C: 123% and 106% (2×)
Compound 1 µM
  viability, T/C: 116% and 126% and 105%
Compound 3.16 µM
  viability, T/C: 116% and 111% and 93.8%
Compound 10 µM
  viability, T/C: 83.1% and 86.1% and 71.5%
Curve of compound
  IC50: > 10000 nM

## CCc1c2c(nc3ccc(O)cc13)-c1cc3c(c(=O)n1C2)COC(=O)[C@]3(O)CC + Cc1cccc(N(C)C(=O)C2C(O)CCN2c2nc(C)cc(C(F)(F)F)c2C#N)c1
[1]
  IC50: 20.6 nM
[2]
  IC50: 17 nM
[3]
  IC50: 14 nM
[4]
  IC50: 14.5 nM
[5]
  IC50: 19.4 nM
[6]
  IC50: 6.21 nM
Second compound 0.0316 µM, first compound 0.00316 µM
  viability, T/C: 68.8%
Second compound 0.0316 µM, first compound 0.01 µM
  viability, T/C: 48.8%
[7]
  viability, T/C: 50.4%
[8]
  viability, T/C: 30.2%
[9]
  viability, T/C: 35.8%
[10]
  viability, T/C: 10.7%
Second compound 0.1 µM, first compound 0.00316 µM
  viability, T/C: 58.9%
Second compound 0.1 µM, first compound 0.01 µM
  viability, T/C: 56%
[11]
  viability, T/C: 44.7%
[12]
  viability, T/C: 34%
[13]
  viability, T/C: 28.4%
[14]
  viability, T/C: 10.4%
Second compound 0.316 µM, first compound 0.00316 µM
  viability, T/C: 58.4%
Second compound 0.316 µM, first compound 0.01 µM
  viability, T/C: 57.3%
[15]
  viability, T/C: 37.2%
[16]
  viability, T/C: 35.6%
[17]
  viability, T/C: 27.7%
[18]
  viability, T/C: 8.37%
Second compound 1 µM, first compound 0.00316 µM
  viability, T/C: 64%
Second compound 1 µM, first compound 0.01 µM
  viability, T/C: 51.3%
[19]
  viability, T/C: 39%
[20]
  viability, T/C: 35.3%
[21]
  viability, T/C: 31.1%
[22]
  viability, T/C: 9.07%
Second compound 3.16 µM, first compound 0.00316 µM
  viability, T/C: 60.5%
Second compound 3.16 µM, first compound 0.01 µM
  viability, T/C: 60.4%
[23]
  viability, T/C: 40.9%
[24]
  viability, T/C: 34%
[25]
  viability, T/C: 30.3%
[26]
  viability, T/C: 5.91%
Second compound 10 µM, first compound 0.00316 µM
  viability, T/C: 52%
Second compound 10 µM, first compound 0.01 µM
  viability, T/C: 51.9%
[27]
  viability, T/C: 35.9%
[28]
  viability, T/C: 34.7%
[29]
  viability, T/C: 26.1%
[30]
  viability, T/C: 6.24%

## O=c1[nH]cc(F)c(=O)[nH]1
Compound 0.0316 µM
  viability, T/C: 97% and 89.8% and 113%
Compound 0.1 µM
  viability, T/C: 93.8% and 95.1% and 88.7%
Compound 0.316 µM
  viability, T/C: 106% and 83.7% and 94.8%
Compound 1 µM
  viability, T/C: 94.5% and 79.1% and 72.9%
Compound 3.16 µM
  viability, T/C: 76.2% and 61.7% and 80.9%
Compound 10 µM
  viability, T/C: 67.3% and 59.5% and 77.3%
Curve of compound
  IC50: > 10000 nM
